Source: paper PMC9692247 (Pharmaceuticals, 2022)

How the values were obtained:
[1] = target: T1, recombinant zfHDAC6 (HDAC6 CD2) (Danio rerio, UniProt F8W4B7); assay: Fluorescence polarization (FP) competition assay with FITC-M344; type: binding, Danio rerio (zebrafish); settings: for IC50: 300 nM HDAC6 CD2, 50 nM FITC-M344, read-out: Fluorescence polarization IC50 against zfHDAC6
T1 construct: HDAC6 from Danio rerio (zebrafish; catalytic domain 2, S440-R798); His-SUMO (N, cleaved yes); made in house; host or cells: E. coli BL21 (DE3) RILP
T1 sequence (F8W4B7 440-798): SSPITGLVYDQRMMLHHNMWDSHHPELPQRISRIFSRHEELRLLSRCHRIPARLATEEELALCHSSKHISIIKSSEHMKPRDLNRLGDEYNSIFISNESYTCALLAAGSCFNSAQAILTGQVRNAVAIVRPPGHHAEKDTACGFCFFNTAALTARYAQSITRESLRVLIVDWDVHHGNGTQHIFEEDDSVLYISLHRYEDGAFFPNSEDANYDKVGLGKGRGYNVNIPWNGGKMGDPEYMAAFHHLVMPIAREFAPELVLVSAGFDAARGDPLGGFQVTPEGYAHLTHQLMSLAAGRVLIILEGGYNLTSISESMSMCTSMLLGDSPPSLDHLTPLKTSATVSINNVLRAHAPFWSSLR
Experimental: The FP assay was conducted in a Greiner Bio-one black 384-well, nonbinding microplate (Cat 781900) as previous described. These studies were performed in FP buffer (20 mM HEPES pH 8.0, 137 mM NaCl, 3 mM KCl, 1 mM TCEP, 5% DMSO). Binding experiments were performed in the presence of 50 nM FITC-M344 synthesized as described by Mazitschek et al. and titrated with 0–3 µM HDAC6. Competition assays were performed by titrating 0–100 µM inhibitor to 300 nM HDAC6 CD2 and preincubating the samples for 10 min prior to addition of 50 nM FITC-M344 in FP buffer. The assay mixture was incubated for an additional 10 min before FP measurement. Polarization measurements were collected using Infinite M1000-Tecan (ex/em = 470 nm/530 nm) and data were plotted and fitted using Prism GraphPad 6 built-in function, log(inhibitor) vs. response—variable slope (four parameters).

HDAC6 = HDAC6 (Homo sapiens, UniProt Q9UBN7); assay: Intracellular target engagement residence time assay (NanoBRET) in HeLa cells; type: cell-based; settings: HeLa cells transiently expressing HDAC6-NanoLuc full-length fusion protein
DERL-2 cells [2] = assay: FACS apoptosis detection assay (annexin V/PI); type: cell-based, human; settings: DERL-2, 18 h treatment
Experimental: DERL-2 cells were seeded, dosed with inhibitors, incubated for 18 h, and washed with ice cold 1× PBS. The resulting cell pellets were resuspended in 1× Binding Buffer (1 × 10^6 cell/mL) from the FITC Annexin V Apoptosis Detection Kit I (BD Pharmingen). Subsequently, the dyes Annexin V (5 μL) and Propidium Iodide (PI, 5 μL) were added to 2.5 × 10^5 cells (250 μL). The suspension was thoroughly mixed and incubated in the dark for 15 min. Following the addition of 250 μL of 1× binding buffer the cells were analyzed by flow cytometry within 1 h using Cytoflex S (Beckman Coulter, Brea, CA, USA).

[3] = In vivo PK study in CD-1 male mice (plasma); set-up: species or system CD-1 mice
Experimental: (§1) In vivo mouse studies were performed at Pharmaron in CD-1 male mice in triplicate. The test compounds were formulated within a 4 mg/mL solution (10% DMA, 65% PEG400, 25% saline). CD-1 mice were administered the test compound (50 mg/kg, I.P) once, and blood samples were obtained from each mouse at 0.25, 0.5, 1, 2, 4, 8, and 24 h post-dose. The mice had free access to food and water, were inspected for clinical signs and were weighted once prior to dosing. The working solutions of 5 μL at different concentrations (2, 4, 10, 20, 100, 200, 1000, 2000 ng/mL) were added to CD-1 mouse plasma (10 μL) to generate calibration standards of 1, 2, 5, 10, 50, 100, 500, and 1000 ng/mL. Four quality control (QC) samples at 2, 5, 50, and 800 ng/mL for plasma were prepared independently of calibration curves. Standards, QC samples, and unknown samples (total volume 15 µL) were added to acetonitrile (200 μL) containing IS (2 ng/mL Verapamil, and 50 ng/mL Dexamethasone) for precipitation of protein. Samples were vortexed and centrifuged (4 °C, 3900 rpm, 15 min), and the supernatant was diluted 3× with ultra-pure water. Diluted supernatant was injected into the LC-MS/MS system for quantitative analysis.

KHYG-1 cells = assay: Cytotoxicity assay (Cell Titer-Blue, 72 h); type: cell-based; settings: Homo sapiens, one representative of three experiments, ANKL to T-ALL panel
Experimental: (§2) KHYG-1, SNK6, MTA, YT, DERL-2, DERL-7, Mac2a, SU-DHL-1, Myla, Hut78, SeAx, HH, MOTN-1, KOPT-K1, Jurkat, and Loucy cells were plated in 96-well flat-bottom sterile culture plates with low-evaporation lids (Costar #3997). The inhibitors and a vehicle control (0.5% DMSO) were added to the cells following 24 h. After 72 h, Cell Titer-Blue® (Promega #G808A) was added to each well (20 μL), and the fluorescence was measured at 560/590 nm using a Cytation S63 spectrophotometer (BioTek) or on the GloMax® Discover Microplate Reader (Promega, Madison, WI, USA). IC50 values were determined using non-linear regression analysis with GraphPad Prism 6.0 (GraphPad Software Inc., San Diego, CA, USA).

DERL-2 cells [4] = assay: Cytotoxicity assay (Cell Titer-Blue, 72 h); type: cell-based; settings: Homo sapiens, one representative of three experiments
Experimental: as §2

MTA cells = assay: Cytotoxicity assay (Cell Titer-Blue, 72 h); type: cell-based; settings: Homo sapiens, one representative of three experiments
Experimental: as §2

KOPT-K1 cells = assay: Cytotoxicity assay (Cell Titer-Blue, 72 h); type: cell-based; settings: Homo sapiens, KOPTK1, one representative of three experiments
Experimental: as §2

HH cells = assay: Cytotoxicity assay (Cell Titer-Blue, 72 h); type: cell-based; settings: Homo sapiens, one representative of three experiments
Experimental: as §2

SU-DHL-1 cells = assay: Cytotoxicity assay (Cell Titer-Blue, 72 h); type: cell-based; settings: Homo sapiens, one representative of three experiments
Experimental: as §2

Mac2a cells = assay: Cytotoxicity assay (Cell Titer-Blue, 72 h); type: cell-based; settings: Homo sapiens, one representative of three experiments
Experimental: as §2

Loucy cells = assay: Cytotoxicity assay (Cell Titer-Blue, 72 h); type: cell-based; settings: Homo sapiens, one representative of three experiments
Experimental: as §2

SeAx cells = assay: Cytotoxicity assay (Cell Titer-Blue, 72 h); type: cell-based; settings: Homo sapiens, one representative of three experiments
Experimental: as §2

SNK6 cells = assay: Cytotoxicity assay (Cell Titer-Blue, 72 h); type: cell-based; settings: Homo sapiens, one representative of three experiments
Experimental: as §2

Myla cells = assay: Cytotoxicity assay (Cell Titer-Blue, 72 h); type: cell-based; settings: Homo sapiens, one representative of three experiments
Experimental: as §2

MOTN-1 cells = assay: Cytotoxicity assay (Cell Titer-Blue, 72 h); type: cell-based; settings: Homo sapiens, one representative of three experiments
Experimental: as §2

Hut78 cells = assay: Cytotoxicity assay (Cell Titer-Blue, 72 h); type: cell-based; settings: Homo sapiens, one representative of three experiments
Experimental: as §2

DERL-7 cells = assay: Cytotoxicity assay (Cell Titer-Blue, 72 h); type: cell-based; settings: Homo sapiens, DERL7, one representative of three experiments
Experimental: as §2

Jurkat cells = assay: Cytotoxicity assay (Cell Titer-Blue, 72 h); type: cell-based; settings: Homo sapiens, one representative of three experiments
Experimental: as §2

YT cells = assay: Cytotoxicity assay (Cell Titer-Blue, 72 h); type: cell-based; settings: Homo sapiens, one representative of three experiments
Experimental: as §2

[5] = Plasma stability evaluation; type: in vitro ADME; settings: read-out: T1/2 in plasma
[6] = tested on: acetylation of α-tubulin and histone H3 in multiple myeloma (MM.1S) cells; assay: In cellulo target engagement by Western blotting; type: cell-based; settings: 6 h treatment, Western blot
Experimental: (§3) Cells (MV4-11 AML, MM.1S multiple myeloma, or YT cells) were incubated with inhibitors prior to washes (2×) with cold phosphate-buffered saline (PBS) and cell lysis with radioimmunoprecipitation assay (RIPA) buffer (20 mM Tris pH 7.4, 150 mM NaCl, 0.5% deoxycholate, 1% Triton X-100, and 0.1% sodium dodecyl sulfate (SDS)). Total protein content was determined through a bicinchoninic acid (BCA) assay (ThermoFisher Scientific, Waltham, MA, USA). The cell lysate proteins were separated via a 4–20% polyacrylamide SDS gel and transferred to a PVDF membrane (Bio-Rad, Hercules, CA, USA). Non-specific binding of the antibody to the membrane was reduced by blocking the membranes with a 5% (w/v) solution of Bovine Serum Albumin powder in TBS-T. This was followed by incubation at 4 °C (overnight) with the following antibodies: acetylated α-tubulin mouse monoclonal (sc-23950, Santa Cruz, Santa Cruz, CA, USA), acetylated Histone H3 (Ac-Lys18, 07-354, Sigma), β-Actin mouse monoclonal (AC-15, sc-69879, Santa Cruz), and […] HSC70 (sc-7298, Santa Cruz). Following overnight incubation, horseradish peroxidase (HRP)-conjugated goat anti-mouse IgG secondary antibody (7076, Cell Signaling) or HRP-linked anti-rabbit IgG secondary antibody (7074, Cell Signaling) was applied to the membrane in a 1:5000 dilution for 1 h. The bands were visualized using clarity Western ECL substrate luminal/enhancer solution and peroxide solution. Western blotting analysis was carried out using Image lab software (Bio-Rad).

[7] = tested on: acetylation of α-tubulin and histone H3 in acute myeloid leukemia (MV4-11) cells; assay: In cellulo target engagement by Western blotting; type: cell-based; settings: 6 h treatment, Western blot
Experimental: as §3

[8] = In vivo brain PK analysis in male CD-1 mice; settings: IP, 50 mg/kg, n = 3
Experimental: as §1

[9] = mouse, plasma, male CD-1 mice, IP, 50 mg/kg, n = 3

## O=C(CCCCCCNC(=O)c1cnc(N(c2ccccc2)c2ccccc2Cl)nc1)NO [Citarinostat, citarinostat]
[1]
  IC50: 0.0902 µM
[1]; FP IC50 vs NN-429
  Binding affinity lower than NN-429 (FP): 3 fold

## CC(C)N(Cc1ccc(C(=O)NO)cc1)S(=O)(=O)c1cc(F)c(F)c(F)c1F [NN-390]
HDAC6
  Intracellular residence time in HDAC6: 97 min

## CC(C)N(Cc1ccc(C(=O)NO)cc1F)S(=O)(=O)c1cc(F)c(F)c(F)c1F [NN-429]
DERL-2 cells [2]; 0.1 μM
  Cells undergoing early-stage apoptosis (annexin V+/PI−): 15%
DERL-2 cells [2]; 5 μM
  Cells undergoing early-stage apoptosis (annexin V+/PI−): 56%
[3]; CD-1 mice, KT-531 at a lower dose
  in vivo t1/2 longer than that of KT-531: > 3.5 fold
[3]; CD-1 mice, NN-390 at a lower dose
  in vivo t1/2 longer than that of NN-390: ~ 1.8 fold
[3]; [9]
  AUC(0-inf): 9920 ng·h/mL
  AUC(0-t): 9860 ng·h/mL
  Cmax: 3190 ng/mL
  half-life: 3.53 h
KHYG-1 cells
  IC50: 7.25 µM
DERL-2 cells [4]
  IC50: 2.32 µM
MTA cells
  IC50: 0.72 µM
KOPT-K1 cells
  IC50: 6.16 µM
HH cells
  IC50: 2.95 µM
SU-DHL-1 cells
  IC50: 4.72 µM
Mac2a cells
  IC50: 15.1 µM
Loucy cells
  IC50: 3.6 µM
SeAx cells
  IC50: 12.4 µM
SNK6 cells
  IC50: 12 µM
Myla cells
  IC50: > 50 µM
MOTN-1 cells
  IC50: 2.75 µM
Hut78 cells
  IC50: 16.7 µM
DERL-7 cells
  IC50: 2.21 µM
Jurkat cells
  IC50: 5.46 µM
YT cells
  IC50: 1.29 µM
[5]
  half-life: 1.55 h
[1]
  IC50: 0.0288 µM
[6]
  Concentration with visible off-target interaction (histone H3 acetylation): 5 µM
  Lowest concentration with dose-dependent increase in acetylation of α-tubulin: 0.1 µM
[7]
  Target engagement (α-tubulin vs histone H3 acetylation): strong target engagement with minimal acetylation of off-target histone H3
[8]
  Levels in the brain: no observable levels
